The text below walks through data of patent publication US20230271956A1, “AMIDE DERIVATIVES” (Merck Patent GmbH, priority 2020, published 2023).

As usually defined, the IC50 is the concentration at which inhibition is half-maximal.

This test deals with T1, human rec ACSS2 (Homo sapiens, UniProt Q9NR19).
T1 construct: myc (C); purchased Origene
As to the kind of experiment: Biochemical activity ACSS2 assay (AMP-Glo). Conditions: human recombinant ACSS2, AMP-Glo, 180 min at 37° C. The procedure, abridged:
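C-terminal myc-tagged human recombinant ACSS2 (1 nM) reacted with 100 µM ATP, 100 µM CoA and 500 µM acetate (final) in pH 7.5 Hepes buffer for 180 min at 37° C, compound in 10 concentrations from 30 µM. Released AMP detected by AMP-Glo luminescence. IC50 normalised to inhibitor-free reaction and 5 µM reference inhibitor.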

T1 sequence (Q9NR19 whole entry): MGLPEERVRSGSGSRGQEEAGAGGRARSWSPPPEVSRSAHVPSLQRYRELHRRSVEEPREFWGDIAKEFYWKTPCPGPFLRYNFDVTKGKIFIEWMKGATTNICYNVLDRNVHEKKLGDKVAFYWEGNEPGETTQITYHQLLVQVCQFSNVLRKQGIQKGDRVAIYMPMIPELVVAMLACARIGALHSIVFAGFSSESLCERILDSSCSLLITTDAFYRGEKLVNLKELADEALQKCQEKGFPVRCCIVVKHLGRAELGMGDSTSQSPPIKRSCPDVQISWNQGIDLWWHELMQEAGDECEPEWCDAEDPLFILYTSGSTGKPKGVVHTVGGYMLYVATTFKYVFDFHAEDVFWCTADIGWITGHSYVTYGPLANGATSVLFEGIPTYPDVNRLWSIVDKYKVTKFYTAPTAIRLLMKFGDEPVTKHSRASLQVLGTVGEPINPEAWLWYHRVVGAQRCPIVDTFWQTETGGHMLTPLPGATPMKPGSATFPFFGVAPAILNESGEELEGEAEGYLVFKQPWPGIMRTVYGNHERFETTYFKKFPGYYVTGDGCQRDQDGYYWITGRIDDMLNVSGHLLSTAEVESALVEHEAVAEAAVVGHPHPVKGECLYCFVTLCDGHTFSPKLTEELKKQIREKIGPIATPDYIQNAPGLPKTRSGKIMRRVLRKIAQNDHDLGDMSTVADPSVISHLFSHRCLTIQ

As to `CCc1c(C(O)(c2ccccc2)c2ccccc2)nc2cc(OC)c(C(=O)Nc3ncn(CC)n3)cn12` [Compound 24, 3-Ethyl-2-(hydroxy-diphenyl-methyl)-7-methoxy-imidazo[1,2-a]pyridine-6-carboxylic acid (1-ethyl-1H-[1,2,4]triazol-3-yl)-amide], the IC50 is 1 to 10 nM.
